Measured values published in article PMC10038264, “A new family of glutamate-gated chloride channels in parasitic sea louse Caligus rogercresseyi: A subunit refractory to activation by ivermectin is dominant in heteromeric assemblies” (PLOS Pathogens, 2023).
Read-outs that look alike come from different tables or passages of the source.

Key:
[1] = test system: coexpressed CrGluCl-E:CrGluCl-C; test: Voltage-clamp of oocytes coexpressing CrGluCl-E and CrGluCl-C; assay type: cell-based, Caligus rogercresseyi; settings: C:E ratio 1:1
Protocol: (§1) Adult female Xenopus laevis frogs were anaesthetized by immersion in a1g/L solution tricaine (Ethyl 3-aminobenzoate methanesulfonate, Sigma) buffered to pH 7 with NaHCO3. Surgery was performed 30–40 min later, once the frog was completely anaesthetized judging by loss of reflexes. Ovarian lobes were removed through 1 cm abdominal incision and then kept at 16°C in Barth’s modified solution containing (in mM): 88 NaCl, 1 KCl, 0.4 CaCl2, 0.3 Ca (NO3)2, 0.8 MgSO4, 2.4 NaHCO3, 5 Hepes, 2.5 sodium pyruvate, 100 μg/ml gentamicin sulfate, 100 U/ml penicillin, 100 μg/ml streptomycin, 250 μg/ml amphotericin B, 0.22μm filtered and adjusted to pH 7.5 with Tris-Base. Osmolarity was brought to 220 mOsm with saccharose. The oocytes were manually defolliculated on the same day of extraction and the following day 20 ng cRNA in nuclease-free water was injected into stage V-VI oocytes using a FemtoJet microinjector (Eppendorf). Finally, the injected oocytes were stored in 96 well plates containing Barth’s modified solution and kept at 16°C until experiment day.
(§2) Current measurements at controlled membrane potentials (voltage-clamp experiments) were performed using two intracellular microelectrodes in defolliculated Xenopus oocytes previously microinjected with 20 ng of cRNA. Voltage-clamp recording was performed at room temperature using a TURBO TEC-10CX amplifier (npi electronic GmbH, Tamm, Germany) and PClamp 10.6 software (Axon Instruments, USA), 1 to 4 days after oocyte injection. The oocytes were recorded in a chamber (Model RC-1Z, Warner Instrumenst, USA) under continuous superfusion. […] Reference was an Ag-AgCl electrode connected to the bath via a 3 M KCl in 3% agar bridge. Currents were recorded continuously during the experiments without interruptions for solution changes. […] The signal filtered at 1 kHz was acquired with a Digidata 1440A Analog-to-Digital Converter and analyzed with Axon pClamp 10.6 software. […]

[2] = test system: CeGluClβ (CeGLC-2); settings: cited from earlier work
[3] = test system: CrGluCl-D; assay type: cell-based, Caligus rogercresseyi; settings: CrGluCl-D spontaneous current
Protocol: as §1
(§3) Current measurements at controlled membrane potentials (voltage-clamp experiments) were performed using two intracellular microelectrodes in defolliculated Xenopus oocytes previously microinjected with 20 ng of cRNA. Voltage-clamp recording was performed at room temperature using a TURBO TEC-10CX amplifier (npi electronic GmbH, Tamm, Germany) and PClamp 10.6 software (Axon Instruments, USA), 1 to 4 days after oocyte injection. The oocytes were recorded in a chamber (Model RC-1Z, Warner Instrumenst, USA) under continuous superfusion. […] Reference was an Ag-AgCl electrode connected to the bath via a 3 M KCl in 3% agar bridge. Currents were recorded continuously during the experiments without interruptions for solution changes. Oocytes were held at -30 mV and a voltage protocol consisting of a voltage drop to -100 mV for 25ms followed by a 360 ms ramp from -100 mV to 60mV applied with a period of 565 ms was continuously given. The signal filtered at 1 kHz was acquired with a Digidata 1440A Analog-to-Digital Converter and analyzed with Axon pClamp 10.6 software. The solution that bathed the oocytes during the electrophysiological recordings had the following composition (mM): 115 NaCl, 2 KCl, 1.8 CaCl2, 1 MgCl2, 10 HEPES pH 7.5 obtained with NaOH. For the low chloride solution, all the NaCl was replaced with the gluconate salt of Na. This decreases chloride concentration from 122.6 to 7.6 mM while increasing that of gluconate from 0 to 115 mM. The stock solutions of the drugs in dimethyl sulfoxide (DMSO) were: 10 mM emamectin, 10 mM ivermectin, 100 mM picrotoxin. These were diluted in bath solution to obtain final concentrations.
(§4) The currents were normalized according to the extrapolated maximum current delivered by the Hill adjustment. In this way, the concentration that generates 50% of the maximum effect (EC50) and the Hill coefficient (nH) for each situation were obtained.

[4] = test system: CrGluCl-C; assay type: cell-based, Caligus rogercresseyi; settings: for maximal current: CrGluCl-C, saturating concentration of agonist; for nH (ivermectin) / EC50: CrGluCl-C alone; for EC50: irreversible activation
Protocol: as §1, §3, §4

[5] = target: coexpressed CrGluCl-E:CrGluCl-A (Caligus rogercresseyi, UniProt A0A1W6LZ70); test: Voltage-clamp of oocytes coinjected with CrGluCl-E and CrGluCl-A; assay type: cell-based; settings: E:A ratio 1:1
Protocol: as §1, with “The oocytes were manually defolliculated on the same day of extraction and the following day 20 ng cRNA in nuclease-free water was injected into stage V-VI oocytes using a FemtoJet microinjector (Eppendorf). Finally, the injected oocytes were stored in 96 well plates containing Barth’s modified solution and kept at 16°C until experiment day.” left out
Current measurements at controlled membrane potentials (voltage-clamp experiments) were performed using two intracellular microelectrodes in defolliculated Xenopus oocytes previously microinjected with 20 ng of cRNA. […] The oocytes were recorded in a chamber (Model RC-1Z, Warner Instrumenst, USA) under continuous superfusion. […] Currents were recorded continuously during the experiments without interruptions for solution changes. […] The signal filtered at 1 kHz was acquired with a Digidata 1440A Analog-to-Digital Converter and analyzed with Axon pClamp 10.6 software. […]

[6] = test system: coexpressed CrGluCl-C:CrGluCl-B; test: Voltage-clamp of oocytes coexpressing CrGluCl-C and CrGluCl-B; assay type: cell-based, Caligus rogercresseyi; settings: for Iver response to activation: B:C ratio 1:1, 1 μM ivermectin
Protocol: as §1, §2

[7] = test system: coexpressed CrGluCl-A:CrGluCl-B; test: Voltage-clamp of oocytes coexpressing CrGluCl-A and CrGluCl-B; assay type: cell-based, Caligus rogercresseyi
Protocol: as §1, §3, §4

coexpressed CrGluCl-E:CrGluCl-A, sequence (A0A1W6LZ70 entry or part of it): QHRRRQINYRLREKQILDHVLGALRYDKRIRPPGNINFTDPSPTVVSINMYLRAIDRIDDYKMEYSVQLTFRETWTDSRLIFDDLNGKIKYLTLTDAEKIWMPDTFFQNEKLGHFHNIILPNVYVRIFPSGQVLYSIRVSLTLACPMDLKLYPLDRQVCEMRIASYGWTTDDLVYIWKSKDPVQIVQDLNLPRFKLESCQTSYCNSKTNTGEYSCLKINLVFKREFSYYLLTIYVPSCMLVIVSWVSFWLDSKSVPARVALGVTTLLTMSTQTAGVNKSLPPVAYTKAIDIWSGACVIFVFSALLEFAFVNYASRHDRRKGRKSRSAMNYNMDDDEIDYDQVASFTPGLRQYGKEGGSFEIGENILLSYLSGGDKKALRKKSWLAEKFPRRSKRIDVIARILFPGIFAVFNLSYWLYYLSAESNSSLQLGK

In the case of `N[C@@H](CCC(=O)O)C(=O)O` [glutamate, L-glutamate], the EC50 [1] is given as 36.5 ± 22.5 µM, the EC50 ([2]; read-out: EC50 glutamate, CeGluClβ) is given as 380 µM and the direct activating effect [3] is given as “lack a direct activating effect”. For the same compound, the maximal current [4] was 3.5 ± 1.7 μA, the “nH (glutamate)” value [5] was 2.5 ± 0.3 and the EC50 ([6]; B:C ratio 1:1) was 53 ± 18.8 µM. The EC50 ([7]; A:B ratio 1:1) was 82 ± 35 µM, the EC50 ([7]; A:B ratio 1:4) was 72 ± 47 µM and the EC50 ([7]; A:B ratio 4:1) was 89 ± 47 µM.

For ivermectin, the “nH (ivermectin)” value [1] is given as 2.1 ± 0.67, the “nH (ivermectin)” value ([1]; listed as Iver) is given as 2.1 ± 0.7 and the “nH (ivermectin inhibition)” value ([2]; CeGLC-2) is given as -1.74. For the same compound, the IC50 ([2]; read-out: IC50 ivermectin inhibition of glutamate activated current, CeGLC-2) was 1.28 µM, the direct activating effect [3] was “lack a direct activating effect” and the “nH (ivermectin)” value [4] was 2.1. The EC50 ([4]; listed as Ivermectin) was 0.031 ± 0.014 µM, the EC50 ([4]; read-out: EC50 Ivermectin) was 0.0311 ± 0.0144 µM and the “nH (ivermectin)” value ([4]; listed as Ivermectin) was 2.1 ± 0.67. The maximal current [4] was 3.7 ± 1.3 μA, the “Iver response to activation” value [5] was “Sensitive” and the “Iver response to activation” value [6] was “failed to elicit a significant response”. The “Iver response to activation” value ([6]; listed as Iver) was “Insensitive”, the “Iver response to activation” value ([7]; A:B ratio 1:1) was “Insensitive” and the “Iver response to activation” value ([7]; A:B ratio 1:4) was “Insensitive”. The “Iver response to activation” value ([7]; A:B ratio 4:1) was “Insensitive”.
